Test results from patent publication US12378287B2 (priority 2019, dated 2025).

Assays:
GII.3 VLP = format: binding, norovirus; details: 100 μM peptide on SA chip; for Kd: GII.3 VLP 1, 0.1, 0.01, 0.001 mg/mL, KD calculated from ka and kd; for ka / kd: GII.3 VLP; for ka: association 90 sec; for kd: dissociation 60 sec
Procedure: (§1) The apparatus used was BLItz™ (manufactured by ForteBio). The tip of SA chip (manufactured by ForteBio) was kept in contact with purified water for 1 minute for hydration and was then kept in contact with a 1% BSA aqueous solution for 1 hour for blocking. The SA chip subjected to blocking treatment was set to the measuring unit of the BLItz™ main body, and measurement was performed according to the program shown in Table 16. The peptides of SEQ ID NOs: 103, 167, 205, 263, 283, 288, and 302 were used, and the concentration was adjusted to 100 μM. The concentrations of each of the GII.3 and GII.17 VLPs were adjusted to 1, 0.1, 0.01, and 0.001 mg/mL. The measurement data were analyzed using the attached software, and the KD value was calculated based on the Ka and Kd values.

GII.17 VLP = format: binding, norovirus; details: 100 μM peptide on SA chip; for Kd: GII.17 VLP 1, 0.1, 0.01, 0.001 mg/mL, KD calculated from ka and kd; for ka / kd: GII.17 VLP; for ka: association 90 sec; for kd: dissociation 60 sec
Procedure: as §1

Row | Sequence | Kd (GII.3 VLP) [nM] | ka (GII.3 VLP) [M⁻¹ s⁻¹] | kd (GII.3 VLP) [s⁻¹] | Kd (GII.17 VLP) [nM] | ka (GII.17 VLP) [M⁻¹ s⁻¹] | kd (GII.17 VLP) [s⁻¹]
1 | ANYRWSRSIK [No.263] | 57.5 | 851000 | 0.049 | 19.1 | 140000 | 0.00865
2 | CKARSARGVS [No.288] | 6.86 | 2.09e+06 | 0.0143 | 12 | 620000 | 0.00747
3 | FVWRRRAGLY [No.167] | 1.39 | 3.14e+06 | 0.00435 | 0.696 | 1.59e+06 | 0.00111
4 | FVWSRRTGLY [No.205] | 31.6 | 1.03e+06 | 0.001 | 109 | 169000 | 0.0184
5 | RFLVPVVKVM [No.103] | 8.07 | 2.1e+06 | 0.017 | 8.13 | 1.38e+06 | 0.0112
6 | RSMSLHVSMT [No.283] | 0.909 | 7.86e+06 | 0.00715 | 1.39 | 994000 | 0.000138
7 | VWWGRRISRF [No.302] | – | – | – | 28.4 | 2.28e+06 | 0.0648
